Experimental data from patent US20230234948A1, “CYCLOPROPYL DIHYDROQUINOLINE SULFONAMIDE COMPOUNDS” (AMGEN INC., priority 2020, published 2023).
pIC50: −log10 of the molar value.

molecular target: T1, Human NaV1.7 (Homo sapiens, UniProt Q15858); test: Ionworks Barracuda (IWB) automated patch clamp assay; assay type: cell-based; details: human NaV1.7 in HEK cells, population patch-clamp, state- and use-dependent voltage protocol; read-out: hNaV1.7 IWB-U IC50
T1 construct: expressed in transfected cells; host or cells: Spiking HEK cells (without Kir2.1 transfection)
Protocol: Ionworks Barracuda (IWB) Automated Patch Clamp Assay (Same Protocol for Both Human and Mouse)
Human NaV1.7 currents were recorded in population patch-clamp mode with the IWB automated electrophysiology system (Molecular Devices, LLC, Sunnyvale, Calif.). Spiking HEK cells (without Kir2.1 transfection) were cultured and prepared for recordings as previously described for IonWorks Quattro testing^1. The external solution consisted of the following (in mM): NaCl 140, KCl 5, CaCl2 2, MgCl2 1, HEPES 10, and glucose 11, pH 7.4, with N-methyl-D-glucamine at 320 mOsmol. […] From a holding potential of −110 mV, currents were elicited by a train of 26 depolarizations of 150 ms duration to −20 mV at a frequency of 5 Hz. Cells were then clamped to −20 mV for a period of 4 minutes in the presence of a single concentration of test compound. Following this compound incubation period, cells were clamped to −110 mV for three seconds to recover unbound channels and put through the same 26 pulse voltage protocol as above. Peak inward current during the 26th pulse to −20 mV in the presence of compound was divided by the peak inward current evoked by the 26th pulse to −20 mV in the absence of compound to determine percent inhibition. Concentration-response curves of percent inhibition as a function of concentration were generated to calculate IC50 values as described in Kornecook, T. J.; Yin, R.; Altmann, S.; et al. Pharmacologic Characterization of AMG8379, a Potent and Selective Small Molecule Sulfonamide Antagonist of the Voltage-Gated Sodium Channel NaV1. 7.
The potency of the compounds of the present invention were evaluated on human NaV1.7 channels using the above described IonWorks Barracuda automated electrophysiology platform that evaluates the ability of compounds to block sodium conductance through NaV1.7 channels. A voltage-protocol that prosecutes both state-dependent as well as use-dependent inhibition was used as these modes of action are thought to be more relevant for the native state of NaV1.7 channels in pain sensing neurons in vivo.

T1 sequence (Q15858 whole entry): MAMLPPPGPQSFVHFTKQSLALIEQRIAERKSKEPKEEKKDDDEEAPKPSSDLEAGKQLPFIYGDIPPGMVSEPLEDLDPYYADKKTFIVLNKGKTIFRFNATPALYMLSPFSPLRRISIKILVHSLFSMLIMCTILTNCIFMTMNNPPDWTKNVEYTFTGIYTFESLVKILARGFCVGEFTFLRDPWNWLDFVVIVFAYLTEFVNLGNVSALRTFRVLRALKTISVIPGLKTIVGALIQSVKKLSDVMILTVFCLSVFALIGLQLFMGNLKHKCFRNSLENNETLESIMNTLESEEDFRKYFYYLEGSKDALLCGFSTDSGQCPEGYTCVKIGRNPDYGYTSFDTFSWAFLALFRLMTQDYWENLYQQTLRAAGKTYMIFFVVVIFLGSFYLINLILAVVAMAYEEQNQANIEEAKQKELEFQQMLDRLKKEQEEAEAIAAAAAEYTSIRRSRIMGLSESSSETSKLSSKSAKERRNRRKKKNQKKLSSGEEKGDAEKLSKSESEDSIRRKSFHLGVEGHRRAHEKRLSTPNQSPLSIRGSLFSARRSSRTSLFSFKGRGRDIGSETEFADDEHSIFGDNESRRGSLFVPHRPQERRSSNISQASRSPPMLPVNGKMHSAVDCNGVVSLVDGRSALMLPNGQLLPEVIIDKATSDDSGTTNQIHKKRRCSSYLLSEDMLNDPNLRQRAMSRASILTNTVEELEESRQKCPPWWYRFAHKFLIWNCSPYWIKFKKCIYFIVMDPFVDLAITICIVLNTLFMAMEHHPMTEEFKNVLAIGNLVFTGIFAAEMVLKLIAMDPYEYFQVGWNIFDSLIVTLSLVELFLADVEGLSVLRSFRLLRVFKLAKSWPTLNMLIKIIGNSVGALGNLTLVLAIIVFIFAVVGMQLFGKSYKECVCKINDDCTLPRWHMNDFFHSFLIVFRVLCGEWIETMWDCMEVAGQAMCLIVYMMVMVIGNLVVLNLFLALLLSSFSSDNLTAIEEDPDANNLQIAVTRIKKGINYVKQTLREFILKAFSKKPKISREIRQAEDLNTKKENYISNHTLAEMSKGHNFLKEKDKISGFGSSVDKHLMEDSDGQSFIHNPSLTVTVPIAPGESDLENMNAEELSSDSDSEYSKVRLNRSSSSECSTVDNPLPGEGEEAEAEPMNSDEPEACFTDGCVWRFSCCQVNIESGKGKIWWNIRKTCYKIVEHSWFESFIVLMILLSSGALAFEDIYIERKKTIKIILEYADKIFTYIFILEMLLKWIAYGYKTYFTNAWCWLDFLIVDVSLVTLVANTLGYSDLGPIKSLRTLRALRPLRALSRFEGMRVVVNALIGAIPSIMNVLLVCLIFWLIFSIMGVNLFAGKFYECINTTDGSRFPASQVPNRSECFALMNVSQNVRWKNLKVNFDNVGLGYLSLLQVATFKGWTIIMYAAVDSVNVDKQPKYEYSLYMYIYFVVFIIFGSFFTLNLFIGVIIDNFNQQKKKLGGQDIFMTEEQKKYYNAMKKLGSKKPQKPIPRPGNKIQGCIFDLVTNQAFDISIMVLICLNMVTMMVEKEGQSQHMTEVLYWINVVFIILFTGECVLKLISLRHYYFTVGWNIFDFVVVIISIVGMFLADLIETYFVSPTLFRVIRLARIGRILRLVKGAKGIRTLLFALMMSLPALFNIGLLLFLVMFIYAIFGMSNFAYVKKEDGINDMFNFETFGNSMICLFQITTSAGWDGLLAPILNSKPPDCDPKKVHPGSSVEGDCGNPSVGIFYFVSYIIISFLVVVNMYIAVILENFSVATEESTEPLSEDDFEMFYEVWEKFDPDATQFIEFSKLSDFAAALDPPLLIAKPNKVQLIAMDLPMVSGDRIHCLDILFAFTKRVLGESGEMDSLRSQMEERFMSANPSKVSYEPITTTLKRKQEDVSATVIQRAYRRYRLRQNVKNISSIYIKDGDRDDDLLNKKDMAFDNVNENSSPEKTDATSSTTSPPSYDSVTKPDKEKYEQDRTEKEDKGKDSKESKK

SMILES	pIC50
COc1cc([C@@H]2C[C@H]2C(F)(F)F)c(F)cc1-n1c(=O)ccc2cc(S(=O)(=O)Nc3ncns3)ccc21 (atropisomer, axis not shown; (P)) [Example 34, (P)-1-(5-fluoro-2-methoxy-4-((1R,2R)-2-(trifluoromethyl)cyclopropyl)phenyl)-2-oxo-N-(1,2,4-thiadiazol-5-yl)-1,2-dihydroquinoline-6-sulfonamide]	8.30
COc1cc([C@@H]2C[C@H]2C(F)(F)F)c(F)cc1-n1c(=O)ccc2cc(S(=O)(=O)Nc3ncco3)ccc21 (atropisomer, axis not shown; (P)) [Example 35, (P)-1-(5-fluoro-2-methoxy-4-((1R,2R)-2-(trifluoromethyl)cyclopropyl)phenyl)-N-(oxazol-2-yl)-2-oxo-1,2-dihydroquinoline-6-sulfonamide]	7.96
COc1cc([C@H]2C[C@@H]2C(F)(F)F)c(C#N)cc1-n1c(=O)ccc2cc(S(=O)(=O)Nc3ccon3)ccc21 (atropisomer, axis not shown; (P)) [Example 37, (P)-1-(5-cyano-2-methoxy-4-((1S,2S)-2-(trifluoromethyl)cyclopropyl)phenyl)-N-(isoxazol-3-yl)-2-oxo-1,2-dihydroquinoline-6-sulfonamide]	8.15
COc1cc([C@@H]2C[C@H]2C(F)(F)F)c(F)cc1-n1c(=O)cc(F)c2cc(S(=O)(=O)Nc3ccon3)ccc21 (atropisomer, axis not shown; (P)) [Example 44, (P)-4-fluoro-1-(5-fluoro-2-methoxy-4-((1R,2R)-2-(trifluoromethyl)cyclopropyl)phenyl)-N-(isoxazol-3-yl)-2-oxo-1,2-dihydroquinoline-6-sulfonamide]	8.30
COc1cc([C@@H]2C[C@H]2C(F)(F)F)ccc1-n1c(=O)ccc2cc(S(=O)(=O)Nc3ccon3)c(F)cc21 (atropisomer, axis not shown; (P)) [Example 47, (P)-7-fluoro-N-(isoxazol-3-yl)-1-(2-methoxy-4-((1R,2R)-2-(trifluoromethyl)cyclopropyl)phenyl)-2-oxo-1,2-dihydroquinoline-6-sulfonamide]	7.92
COc1cc([C@@H]2C[C@H]2C(F)(F)F)c(F)cc1-n1c(=O)ccc2cc(S(=O)(=O)Nc3ccon3)ccc21 (racemic) [Example 3, trans-1-(5-fluoro-2-methoxy-4-(2-(trifluoromethyl)cyclopropyl)phenyl)-N-(isoxazol-3-yl)-2-oxo-1,2-dihydroquinoline-6-sulfonamide]	7.64
COc1cc(C2(C(F)(F)F)CC2)c(F)cc1-n1c(=O)ccc2cc(S(=O)(=O)Nc3ccon3)ccc21 (single isomer, unassigned) [Example 22, (P)-1-(5-fluoro-2-methoxy-4-(1-(trifluoromethyl)cyclopropyl)phenyl)-N-(isoxazol-3-yl)-2-oxo-1,2-dihydroquinoline-6-sulfonamide]	7.85
COc1cc(C2(C(F)(F)F)CC2)c(F)cc1-n1c(=O)ccc2cc(S(=O)(=O)Nc3ccon3)ccc21 (single isomer, unassigned) [Example 42, (P)-1-(5-fluoro-2-methoxy-4-(1-(trifluoromethyl)cyclopropyl)phenyl)-N-(isoxazol-3-yl)-2-oxo-1,2-dihydroquinoline-6-sulfonamide]	7.70
COc1cc(C2(C(F)(F)F)CC2)c(F)cc1-n1c(=O)ccc2cc(S(=O)(=O)Nc3ccon3)ccc21 (single isomer, unassigned) [Example 43, (M)-1-(5-fluoro-2-methoxy-4-(1-(trifluoromethyl)cyclopropyl)phenyl)-N-(isoxazol-3-yl)-2-oxo-1,2-dihydroquinoline-6-sulfonamide]	5.79

Other lines, results leading:

pIC50	SMILES
7.85	COc1cc([C@H]2C[C@@H]2C(F)(F)F)c(Cl)cc1-n1c(=O)ccc2cc(S(=O)(=O)Nc3cccnn3)ccc21 (single isomer, unassigned) [Example 15]
7.89	COc1cc([C@H]2C[C@@H]2C(F)(F)F)c(C)cc1-n1c(=O)ccc2cc(S(=O)(=O)Nc3ccon3)ccc21 (single isomer, unassigned) [Example 27]
7.96	COc1cc([C@H]2C[C@@H]2C(F)(F)F)ccc1-n1c(=O)ccc2cc(S(=O)(=O)Nc3ccon3)c(F)cc21 (atropisomer, axis not shown; (P)) [Example 48, (P)-7-fluoro-N-(isoxazol-3-yl)-1-(2-methoxy-4-((1S,2S)-2-(trifluoromethyl)cyclopropyl)phenyl)-2-oxo-1,2-dihydroquinoline-6-sulfonamide]
7.96	COc1cc([C@H]2C[C@@H]2C(F)(F)F)c(F)cc1-n1c(=O)ccc2cc(S(=O)(=O)Nc3ccon3)c(F)cc21 (single isomer, unassigned) [Example 46]
8.05	COc1cc([C@H]2C[C@@H]2C2CC2)c(F)cc1-n1c(=O)ccc2cc(S(=O)(=O)Nc3ccon3)ccc21 (atropisomer, axis not shown; (P)) [Example 31, (P)-1-(4-((1R,2S)-[1,1′-bi(cyclopropan)]-2-yl)-5-fluoro-2-methoxyphenyl)-N-(isoxazol-3-yl)-2-oxo-1,2-dihydroquinoline-6-sulfonamide]
8.22	COc1cc([C@H]2C[C@@H]2C(F)(F)F)c(F)cc1-n1c(=O)ccc2cc(S(=O)(=O)Nc3ncco3)ccc21 (atropisomer, axis not shown; (P)) [Example 36, (P)-1-(5-fluoro-2-methoxy-4-((1S,2S)-2-(trifluoromethyl)cyclopropyl)phenyl)-N-(oxazol-2-yl)-2-oxo-1,2-dihydroquinoline-6-sulfonamide]

tested on: CYP3A4; test: Human CYP 3A4 induction assay (mRNA, cryopreserved human hepatocytes); assay type: in vitro ADME; details: 10 uM test compound, 72 hours, percent of control (rifampin positive control)
Protocol: Human CYP 3A4 Induction Assay
Cryopreserved human hepatocytes were seeded in 96-well collagen coated plates at 70,000 cells per well in hepatocyte plating media (HPM, final concentrations: 1× Dulbecco's Modified Eagle's Medium, 0.1 μM dexamethasone, 10% fetal bovine serum, 1×ITS, 1×PSG) followed by incubation at 37° C. under 5% CO2 and 90% relative humidity for 2 days to allow hepatocytes to form a confluent layer. On Day 3, hepatocytes were treated with either test compound or rifampin (20 μM, positive control for CYP3A induction) prepared in hepatocyte incubation media ((HIM, final concentrations: 1× William's Medium E, 0.1 μM dexamethasone, 1×ITS, 1×PSG). Treatment was performed for 72 hours with either 2 concentrations (2 μM or 10 μM) or a range of concentrations (0.001 μM to 100 μM) of the test compound to obtain full dose-response curve. Fresh media containing the relevant concentrations of the test compound was replaced every day until the samples were processed. After 72 hours of incubation, samples were processed for mRNA analysis using bDNA technology using manufacturer's instructions (Affymetrix, Fremont, Calif.). Cell viability was tested at the end of the experiment using MTT assay kit (Roche Diagnostics, Basel, Switzerland). Data was analyzed and presented as percent of control (POC) and Emax and EC50 obtained when appropriate according to guidance from Center for Drug Evaluation and Research (CDER), 2006, Guidance for Industry, Drug Interaction Studies—Study Design, Data Analysis, and Implications for Dosing and Labeling.
Cryopreserved human hepatocytes were seeded in 96-well collagen coated plates at 70,000 cells per well in hepatocyte plating media (HPM, final concentrations: 1× Dulbecco's Modified Eagle's Medium, 0.1 μM dexamethasone, 10% fetal bovine serum, 1×ITS, 1×PSG) followed by incubation at 37° C. under 5% CO2 and 90% relative humidity for 2 days to allow hepatocytes to form a confluent layer. On Day 3, hepatocytes were treated with either test compound or rifampin (20 μM, positive control for CYP3A induction) prepared in hepatocyte incubation media ((HIM, final concentrations: 1× William's Medium E, 0.1 μM dexamethasone, 1×ITS, 1×PSG). Treatment was performed for 72 hours with either 2 concentrations (2 μM or 10 μM) or a range of concentrations (0.001 μM to 100 μM) of the test compound to obtain full dose-response curve. Fresh media containing the relevant concentrations of the test compound was replaced every day until the samples were processed. After 72 hours of incubation, samples were processed for mRNA analysis using bDNA technology using manufacturer's instructions (Affymetrix, Fremont, Calif.). Cell viability was tested at the end of the experiment using MTT assay kit (Roche Diagnostics, Basel, Switzerland). Data was analyzed and presented as percent of control (POC) and Emax and EC50 obtained when appropriate, as described in Halladay, J. et al, 2012, An “all-inclusive” 96-well cytochrome P450 induction method: Measuring enzyme activity, mRNA levels, protein levels, and cytotoxicity from one well using cryopreserved human hepatocytes, Pharmacological and Toxicological Methods, 66:270-275.
The cytochrome P450 (CYP) is a well-known superfamily of enzymes that are responsible for the oxidative and reductive metabolic transformation of medications used in clinical practice. In addition, the CYP enzymes are commonly associated with causing many clinically relevant drug-drug interactions. […]

SMILES	CYP3A4 mRNA Induct Hu 10 uM POC [%]
COc1cc([C@@H]2C[C@H]2C(F)(F)F)c(F)cc1-n1c(=O)ccc2cc(S(=O)(=O)Nc3nncs3)ccc21 (atropisomer, axis not shown; (P)) [Example 40, (P)-1-(5-fluoro-2-methoxy-4-((1R,2R)-2-(trifluoromethyl)cyclopropyl)phenyl)-2-oxo-N-(1,3,4-thiadiazol-2-yl)-1,2-dihydroquinoline-6-sulfonamide]	10.79
